“Also recorded” adds a separate entry of the source.
Experiments:
Format in all cases: in vivo, human
[1] = system: patient with active rheumatoid arthritis; test: Phase 2 clinical trial: condition of the RA in the same patient; conditions: one patient; blinded dose 0.1, 1.0 or 4.0 mg q 12 h oral, 12 weeks
Excerpt: The patient took part in a phase 2, multicenter, randomized, double-blind, parallel-group, dose-ranging study of the safety and preliminary efficacy of daily IB-MECA administered orally for 12 weeks to patients with active rheumatoid arthritis. The patient is a person with a 7 year history of RA, previously treated with 3 disease-modifying anti-rheumatic drugs (DMARDs), and a history of 2-3 years of dry eyes treated with tear substitutes a few times a day. After a 4 week DMARD washout period, the patient was treated with a blinded dose of IB-MECA—either 0.1, 1.0 or 4.0 mg q 12 h for 12 weeks. They are currently continuing IB-MECA treatment under a long term extension protocol of the original 12 weeks study.

[2] = system: RA patients who also suffered from Sicca (dry eyes); test: Schirmer test in RA patients with Sicca given oral IB-MECA capsules twice daily
Description: The IB-MECA was formulated in oval softgel capsules. The capsules contained solutions of IB-MECA in Cremophor RH 40 and Miglyol 812. The capsules contained a dose of 0.1, 1 or 4 mg of IB-MECA, the exact composition of each capsules' type is shown in the following Tabels 1-3: The capsules with IB-MECA were given to patients orally twice daily. All patients had rheumatoid arthritis (RA) and were give IB-MECA within the framework of a clinical study aimed at testing the effect of IB-MECA in modifying RA disease symptoms in these patients. The patients received randomly capsules of one of the above there doses. The patients received the IB-MECA for a period of 12 weeks. 4 out of the treated patients also suffered from Sicca and the effect of IB-MECA on their dry eye symptoms was examined as well. Specifically, four patients at the age 58±4 years who suffered from RA for 8±2 years were followed. At base line, the patients had elevated levels of rheumatoid factor, i.e., 313±120 IU/ml (0<normal<40) and had suffered from dry eyes for 5±1.6 years. Upon treatment with IB-MECA for 6.25±1.1 months, an improvement in Schirmer's test from 8.5±1.4 mm to 15.6±2.9 mm was observed.

[3] = system: patient with rheumatoid arthritis (RA) and secondary Sjogren symptoms, mainly manifested by dry eye; test: Phase 2 clinical trial: dry eye symptoms of one patient with RA and secondary Sjogren symptoms
Excerpt: A patient with rheumatoid arthritis (RA) and secondary Sjogren symptoms, mainly manifested by dry eye, treated for years with eye drops (tear substitutes) participated in a phase 2 clinical trial with IB-MECA for the treatment of active RA. […] The patient took part in a phase 2, multicenter, randomized, double-blind, parallel-group, dose-ranging study of the safety and preliminary efficacy of daily IB-MECA administered orally for 12 weeks to patients with active rheumatoid arthritis. The patient is a person with a 7 year history of RA, previously treated with 3 disease-modifying anti-rheumatic drugs (DMARDs), and a history of 2-3 years of dry eyes treated with tear substitutes a few times a day. After a 4 week DMARD washout period, the patient was treated with a blinded dose of IB-MECA—either 0.1, 1.0 or 4.0 mg q 12 h for 12 weeks. They are currently continuing IB-MECA treatment under a long term extension protocol of the original 12 weeks study.

[4] = Patient 3, dose 4.0 twice daily oral, 7 months treatment, base line 5

CNC(=O)[C@H]1O[C@@H](n2cnc3c(NCc4cccc(I)c4)ncnc32)[C@H](O)[C@@H]1O [IB-MECA, N^6-(3-iodobenzyl)-adenosine-5′-N-methyluronamide]
condition of the RA (swollen and tender joints, ESR and CRP, global assessments, pain and disability) [1]: marked improvement
Schirmer test Left eye End of study ([2]; Mean of 4 patients, doses 0.1-4.0 twice daily, mean 6.25 months treatment, base line mean 6.75): 16.5 mm
Schirmer test Right eye End of study ([2]; Mean of 4 patients, doses 0.1-4.0 twice daily, mean 6.25 months treatment, base line mean 10.25): 14.75 mm
Schirmer test Left eye End of study ([2]; Patient 1, dose 0.1 twice daily oral, 4 months treatment, base line 6): 9 mm
Schirmer test Right eye End of study ([2]; Patient 1, dose 0.1 twice daily oral, 4 months treatment, base line 14): 9 mm
Schirmer test Left eye End of study ([2]; Patient 2, dose 1.0 twice daily oral, 5 months treatment, base line 10): 32 mm
Schirmer test Right eye End of study ([2]; Patient 2, dose 1.0 twice daily oral, 5 months treatment, base line 15): 23 mm
Schirmer test Left eye End of study [2, 4]: 16 mm
Schirmer test Right eye End of study [2, 4]: 17 mm
Schirmer test Left eye End of study ([2]; Patient 4, dose 1.0 twice daily oral, 9 months treatment, base line 6): 9 mm
Schirmer test Right eye End of study ([2]; Patient 4, dose 1.0 twice daily oral, 9 months treatment, base line 7): 10 mm
Schirmer's test after treatment ([2]; four RA patients, treatment for 6.25±1.1 months, improvement from 8.5±1.4 mm at base line): 15.6±2.9 mm
symptoms of dry eye (secondary Sjogren's syndrome) ([3]; blinded dose 0.1, 1.0 or 4.0 mg q 12 h oral, 12 weeks plus extension): improved significantly; also recorded: substantial improvement
time of IB-MECA administration after which tear substitutes were no longer needed ([3]; patient-reported, blinded dose 0.1, 1.0 or 4.0 mg q 12 h oral): 3-4 weeks
current dry eye symptoms under continued treatment ([3]; patient-reported, long term extension protocol): no symptoms of dry eye

Source: US7825102B2, “Treatment of dry eye conditions” (Can-Fite Biopharma Ltd., priority 2004, dated 2010)
